Laboratory results: ChEMBL document CHEMBL5370528, “Synthesis-accessibility-oriented design of c-Jun N-terminal kinase 1 inhibitor” (Eur J Med Chem, 2023)
Activity calls are given as the source filed them. The rule behind the calls is not given here.

Experiments:
[1] = Half-life in Sprague-Dawley rat at 75 mg/kg, po by HPLC-UV analysis; format: ADME, organism-based; conditions: in vivo
[2] = AUC (0 to infinity) in Sprague-Dawley rat at 75 mg/kg, po by HPLC-UV analysis; format: ADME, organism-based; parameters: dose 75 mg/kg, route po; conditions: in vivo
[3] = target: T1, Mitogen-activated protein kinase 9 (Homo sapiens, UniProt P45984); assay: Inhibition of N-terminal GST-tagged recombinant full length human JNK2 expressed in baculovirus infected Sf9 cells using IPTTPITTTYFFFKKK as substrate at 1 uM incubated for 60 mins in the presence of ATP by ADP-Glo reagent based luminescence assay relative to control
T1 sequence (P45984 whole entry, looked up): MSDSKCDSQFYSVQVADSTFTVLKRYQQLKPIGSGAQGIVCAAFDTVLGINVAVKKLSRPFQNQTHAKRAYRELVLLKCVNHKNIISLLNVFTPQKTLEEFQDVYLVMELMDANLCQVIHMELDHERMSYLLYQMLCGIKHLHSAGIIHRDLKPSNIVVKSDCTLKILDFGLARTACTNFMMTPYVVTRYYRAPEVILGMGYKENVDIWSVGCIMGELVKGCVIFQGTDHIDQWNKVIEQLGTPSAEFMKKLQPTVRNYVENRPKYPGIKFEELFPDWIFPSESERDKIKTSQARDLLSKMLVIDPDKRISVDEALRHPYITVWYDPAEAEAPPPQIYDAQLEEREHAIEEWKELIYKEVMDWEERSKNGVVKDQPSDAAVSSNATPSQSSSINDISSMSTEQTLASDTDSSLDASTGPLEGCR

[4] = target: Dual specificity mitogen-activated protein kinase kinase 1 (Homo sapiens) (UniProt Q02750); assay: Inhibition of MAP2K1 (unknown origin) at 1 uM preincubated for 10 mins followed by substrate addition and measured after 60 mins in the presence of ATP by ADP-Glo reagent based luminescence assay relative to control; conditions: time 70.0 min
Chain of Dual specificity mitogen-activated protein kinase kinase 1 (Homo sapiens) (Q02750 whole entry): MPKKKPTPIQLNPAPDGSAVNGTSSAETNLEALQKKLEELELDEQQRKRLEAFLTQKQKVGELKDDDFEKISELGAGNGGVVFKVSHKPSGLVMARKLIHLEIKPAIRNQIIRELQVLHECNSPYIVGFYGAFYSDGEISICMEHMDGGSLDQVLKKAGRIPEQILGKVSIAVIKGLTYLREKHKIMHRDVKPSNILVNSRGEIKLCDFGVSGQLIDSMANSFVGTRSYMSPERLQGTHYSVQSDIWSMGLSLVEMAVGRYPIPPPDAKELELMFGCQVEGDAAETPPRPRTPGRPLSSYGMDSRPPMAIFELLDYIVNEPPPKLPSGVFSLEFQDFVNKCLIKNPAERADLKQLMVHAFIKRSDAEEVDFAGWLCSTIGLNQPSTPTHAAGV

[5] = target: Mitogen-activated protein kinase 8 (Homo sapiens, UniProt P45983); assay: Inhibition of N-terminal GST-tagged recombinant full length human JNK1 expressed in baculovirus infected Sf9 insect cells using IPTTPITTTYFFFKKK as substrate at 0.1 uM incubated for 60 mins in the presence of ATP by ADP-Glo reagent based luminescence assay relative to control
Chain of Mitogen-activated protein kinase 8 (P45983 whole entry): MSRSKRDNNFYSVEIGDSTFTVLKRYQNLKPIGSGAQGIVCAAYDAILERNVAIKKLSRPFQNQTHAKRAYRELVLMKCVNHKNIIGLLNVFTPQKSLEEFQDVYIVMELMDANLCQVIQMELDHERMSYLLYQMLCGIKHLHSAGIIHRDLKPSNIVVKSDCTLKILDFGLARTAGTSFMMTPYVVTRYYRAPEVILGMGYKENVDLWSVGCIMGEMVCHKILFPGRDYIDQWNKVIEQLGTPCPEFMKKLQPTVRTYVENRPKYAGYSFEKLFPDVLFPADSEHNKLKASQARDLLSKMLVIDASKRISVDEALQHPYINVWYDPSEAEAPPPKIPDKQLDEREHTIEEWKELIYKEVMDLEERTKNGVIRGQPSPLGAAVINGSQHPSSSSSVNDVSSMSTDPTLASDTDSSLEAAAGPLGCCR

[6] = target: T2, c-Jun N-terminal kinase, JNK (Homo sapiens) (UniProt P45983+P53779+P45984); assay: Inhibition of JNK in human NCI-H1299 cells assessed as inhibition of anisomycin-activated c-Jun phosphorylation preincubated for 1 hrs followed by anisomycin activation for 1 hrs by Western blot analysis; format: cell-based; conditions: dose 2-50 µM, time 2.0 hrs
[7] = target: T3, Dual specificity mitogen-activated protein kinase kinase 4 (Homo sapiens) (UniProt P45985); assay: Inhibition of MAP2K4 (unknown origin) at 1 uM preincubated for 10 mins followed by substrate addition and measured after 60 mins in the presence of ATP by ADP-Glo reagent based luminescence assay relative to control; conditions: time 70.0 min
T3 sequence (whole entry): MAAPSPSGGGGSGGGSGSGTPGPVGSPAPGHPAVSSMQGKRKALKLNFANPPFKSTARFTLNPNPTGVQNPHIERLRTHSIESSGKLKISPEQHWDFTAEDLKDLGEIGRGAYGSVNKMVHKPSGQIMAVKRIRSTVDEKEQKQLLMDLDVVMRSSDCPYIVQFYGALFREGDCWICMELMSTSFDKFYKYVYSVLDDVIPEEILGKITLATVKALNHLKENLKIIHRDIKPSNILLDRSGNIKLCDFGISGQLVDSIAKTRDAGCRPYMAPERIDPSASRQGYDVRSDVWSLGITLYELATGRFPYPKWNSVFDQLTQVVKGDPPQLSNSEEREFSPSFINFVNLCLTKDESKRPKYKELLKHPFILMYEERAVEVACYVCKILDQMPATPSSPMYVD

[8] = target: c-Jun N-terminal kinase (Mus musculus) (UniProt Q91Y86+Q9WTU6+Q61831); assay: Inhibition of JNK in mouse NIH-3T3 cells assessed as inhibition of anisomycin-activated c-Jun phosphorylation preincubated for 1 hrs followed by anisomycin activation for 1 hrs by Western blot analysis; format: cell-based; conditions: NIH3T3, dose 2-50 µM, time 2.0 hrs
Chain of c-Jun N-terminal kinase (Mus musculus) (Q61831 whole entry, looked up): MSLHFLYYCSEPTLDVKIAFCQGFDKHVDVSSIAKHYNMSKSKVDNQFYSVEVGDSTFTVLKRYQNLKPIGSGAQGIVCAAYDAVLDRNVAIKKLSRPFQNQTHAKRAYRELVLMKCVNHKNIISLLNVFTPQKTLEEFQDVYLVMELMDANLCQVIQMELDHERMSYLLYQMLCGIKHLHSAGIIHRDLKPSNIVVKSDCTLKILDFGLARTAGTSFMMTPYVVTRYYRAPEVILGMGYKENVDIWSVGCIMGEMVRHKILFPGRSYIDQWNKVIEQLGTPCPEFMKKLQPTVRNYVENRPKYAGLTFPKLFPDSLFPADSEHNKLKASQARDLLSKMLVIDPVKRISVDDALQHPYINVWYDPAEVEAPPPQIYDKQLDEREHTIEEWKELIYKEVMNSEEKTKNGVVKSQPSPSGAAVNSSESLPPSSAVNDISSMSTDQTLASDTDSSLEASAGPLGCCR
Chain of c-Jun N-terminal kinase (Mus musculus) (Q91Y86 whole entry, looked up): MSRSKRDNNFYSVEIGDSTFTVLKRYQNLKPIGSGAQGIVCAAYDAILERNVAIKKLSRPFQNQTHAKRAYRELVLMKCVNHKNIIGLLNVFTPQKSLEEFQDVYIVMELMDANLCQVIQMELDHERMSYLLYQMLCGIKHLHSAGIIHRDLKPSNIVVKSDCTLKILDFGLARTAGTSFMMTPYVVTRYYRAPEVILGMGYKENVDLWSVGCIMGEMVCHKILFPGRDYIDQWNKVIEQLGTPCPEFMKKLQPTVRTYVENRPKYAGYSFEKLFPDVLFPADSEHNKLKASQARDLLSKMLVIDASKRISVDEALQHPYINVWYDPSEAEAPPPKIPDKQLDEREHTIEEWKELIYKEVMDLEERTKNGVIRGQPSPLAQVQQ
Chain of c-Jun N-terminal kinase (Mus musculus) (Q9WTU6 whole entry, looked up): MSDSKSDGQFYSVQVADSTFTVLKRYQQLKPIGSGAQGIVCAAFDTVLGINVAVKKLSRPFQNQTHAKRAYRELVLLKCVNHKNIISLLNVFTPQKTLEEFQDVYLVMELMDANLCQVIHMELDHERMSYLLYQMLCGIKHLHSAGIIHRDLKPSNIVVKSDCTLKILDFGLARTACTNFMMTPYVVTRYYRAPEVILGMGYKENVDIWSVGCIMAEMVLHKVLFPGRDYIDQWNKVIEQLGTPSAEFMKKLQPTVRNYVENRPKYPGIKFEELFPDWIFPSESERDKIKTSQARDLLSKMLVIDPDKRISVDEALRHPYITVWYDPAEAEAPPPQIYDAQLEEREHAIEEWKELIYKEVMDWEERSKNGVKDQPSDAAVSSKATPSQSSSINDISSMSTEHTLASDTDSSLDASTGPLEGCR

[9] = target: Mitogen-activated protein kinase 1 (Homo sapiens) (UniProt P28482); assay: Inhibition of ERK2 (unknown origin) at 1 uM preincubated for 10 mins followed by substrate addition and measured after 60 mins in the presence of ATP by ADP-Glo reagent based luminescence assay relative to control; conditions: time 70.0 min
Chain of Mitogen-activated protein kinase 1 (Homo sapiens) (P28482 whole entry): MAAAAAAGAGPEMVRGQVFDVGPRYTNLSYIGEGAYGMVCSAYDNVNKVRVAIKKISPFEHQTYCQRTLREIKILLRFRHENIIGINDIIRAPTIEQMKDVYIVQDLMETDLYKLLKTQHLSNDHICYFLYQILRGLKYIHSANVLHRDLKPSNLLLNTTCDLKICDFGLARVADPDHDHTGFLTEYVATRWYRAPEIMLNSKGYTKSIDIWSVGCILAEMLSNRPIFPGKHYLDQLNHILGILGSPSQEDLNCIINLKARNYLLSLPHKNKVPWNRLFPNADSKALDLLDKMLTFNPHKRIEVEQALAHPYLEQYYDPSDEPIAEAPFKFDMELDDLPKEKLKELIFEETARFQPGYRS

[10] = target: CDK4/Cyclin D3 (Homo sapiens) (UniProt P11802+P30281); assay: Inhibition of CDK4/Cyclin D3 (unknown origin) at 1 uM preincubated for 10 mins followed by substrate addition and measured after 60 mins in the presence of ATP by ADP-Glo reagent based luminescence assay; format: protein-complex assay; conditions: time 70.0 min
[11] = target: T1, Mitogen-activated protein kinase 9; assay: Inhibition of N-terminal GST-tagged recombinant full length human JNK2 expressed in baculovirus infected Sf9 cells using IPTTPITTTYFFFKKK as substrate at 0.1 uM incubated for 60 mins in the presence of ATP by ADP-Glo reagent based luminescence assay relative to control
[12] = Clearance in Sprague-Dawley rat at 75 mg/kg, po by HPLC-UV analysis; format: ADME, organism-based; conditions: in vivo
[13] = test system: Mus musculus; assay: Anti-fibrotic activity in bleomycin-induced C57BL/6 mouse model of pulmonary fibrosis assessed as restoration of respiratory function at 75 mg/kg, po administered twice a day for 3 weeks by spirometry analysis; format: functional
[14] = test system: Mus musculus; assay: Anti-fibrotic activity in bleomycin-induced C57BL/6 mouse model of pulmonary fibrosis assessed as alleviation of neutrophil infiltration in lungs at 25 to 75 mg/kg, po administered twice a day for 3 weeks by H&E staining based analysis; format: functional, organism-based; conditions: dose 25-75 mg/kg
[15] = test system: Mus musculus; assay: Anti-fibrotic activity in bleomycin-induced C57BL/6 mouse model of pulmonary fibrosis assessed as increase in respiratory function by measuring minute volume at 25 to 75 mg/kg, po administered twice a day for 3 weeks by spirometry analysis; format: functional, organism-based; conditions: dose 25-75 mg/kg
[16] = target: Mitogen-activated protein kinase 10 (Homo sapiens, UniProt P53779); assay: Inhibition of N-terminal GST-tagged recombinant full length human JNK3 expressed in baculovirus infected Sf9 cells using IPTTPITTTYFFFKKK as substrate incubated for 60 mins in the presence of ATP by ADP-Glo reagent based luminescence assay
Chain of Mitogen-activated protein kinase 10 (P53779 whole entry): as the sequence (Q61831 whole entry, looked up) above, with H27Q, S32Y, S267D, V345A, S412G, A432S counted along it

[17] = target: Mitogen-activated protein kinase 3 (Homo sapiens) (UniProt P27361); assay: Inhibition of ERK1 (unknown origin) at 1 uM preincubated for 10 mins followed by substrate addition and measured after 60 mins in the presence of ATP by ADP-Glo reagent based luminescence assay relative to control; conditions: time 70.0 min
Chain of Mitogen-activated protein kinase 3 (Homo sapiens) (P27361 whole entry): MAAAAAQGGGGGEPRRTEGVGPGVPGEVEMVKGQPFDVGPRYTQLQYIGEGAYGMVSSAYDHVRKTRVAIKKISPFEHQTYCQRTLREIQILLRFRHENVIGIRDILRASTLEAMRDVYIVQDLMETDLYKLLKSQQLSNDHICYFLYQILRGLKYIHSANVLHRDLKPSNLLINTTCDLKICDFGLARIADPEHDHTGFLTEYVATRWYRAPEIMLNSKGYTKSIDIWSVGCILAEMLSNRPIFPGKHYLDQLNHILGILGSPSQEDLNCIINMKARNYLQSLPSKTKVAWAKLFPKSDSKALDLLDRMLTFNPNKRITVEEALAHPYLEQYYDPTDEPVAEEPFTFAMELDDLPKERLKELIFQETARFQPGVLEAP

[18] = target: T2, c-Jun N-terminal kinase, JNK (Homo sapiens); assay: Inhibition of JNK in HFL1 cells assessed as inhibition of anisomycin-activated c-Jun phosphorylation preincubated for 1 hrs followed by anisomycin activation for 1 hrs by Western blot analysis; format: cell-based; conditions: dose 2-50 µM, time 2.0 hrs
[19] = test system: Mus musculus; assay: Anti-fibrotic activity in bleomycin-induced C57BL/6 mouse model of pulmonary fibrosis assessed as alleviation of alveolar collapse in lungs at 25 to 75 mg/kg, po administered twice a day for 3 weeks by H&E staining based analysis; format: functional, organism-based; conditions: dose 25-75 mg/kg
[20] = test system: Mus musculus; assay: Anti-fibrotic activity in bleomycin-induced C57BL/6 mouse model of pulmonary fibrosis assessed as protection against BLM-induced death at 75 mg/kg, po administered twice a day for 3 weeks relative to control; format: functional
[21] = Tmax in Sprague-Dawley rat at 75 mg/kg, po by HPLC-UV analysis; format: ADME, organism-based; conditions: in vivo
[22] = Cmax in Sprague-Dawley rat at 5 mg/kg, iv by HPLC-UV analysis; format: ADME, organism-based; parameters: dose 5 mg/kg, route iv; conditions: in vivo
[23] = Half-life in Sprague-Dawley rat at 5 mg/kg, iv by HPLC-UV analysis; format: ADME, organism-based; conditions: in vivo
[24] = AUC(0 to infinity) in Sprague-Dawley rat at 5 mg/kg, iv by HPLC-UV analysis; format: ADME, organism-based; parameters: dose 5 mg/kg, route iv; conditions: in vivo
[25] = test system: Mus musculus; assay: Anti-fibrotic activity in bleomycin-induced C57BL/6 mouse model of pulmonary fibrosis assessed as reduction in collagen accumulation at 25 to 75 mg/kg, po administered twice a day for 3 weeks by Masson's trichome staining based analysis; format: functional, organism-based; conditions: dose 25-75 mg/kg

Question: For `CC(C)(C)CNc1ncc(Br)c(Nc2ccccc2C(N)=O)n1`, which half-life [1] is on record?
Answer: 4.22 h

Question: What about the AUC(0-inf) [2] of the same compound?
Answer: 1700 ng·h/mL

Question: What about the inhibition [3] of the same compound?
Answer: 101%

Question: And the inhibition [4]?
Answer: 2.35%

Question: What about the inhibition [5] of the same compound?
Answer: 71.1%

Question: And the inhibition [6]?
Answer: Dose-Dependent Effect

Question: What about the inhibition [7] of the same compound?
Answer: 93.8%

Question: And the inhibition [8]?
Answer: Dose-Dependent Effect

Question: What about the inhibition [9] of the same compound?
Answer: 18.7%

Question: What about the inhibition [10] of the same compound?
Answer: 41.9%

Question: What about the inhibition [11] of the same compound?
Answer: 43%

Question: What about the CL/F [12] of the same compound?
Answer: 860 mL/min/kg

Question: And the Activity [13]?
Answer: ~100%

Question: And the Activity [14]?
Answer: Active

Question: And the Activity [15]?
Answer: Active

Question: And the IC50 [16]?
Answer: 33.2 nM

Question: What about the inhibition [17] of the same compound?
Answer: 25.9%

Question: And the inhibition [18]?
Answer: Dose-Dependent Effect

Question: And the Activity [19]?
Answer: Active

Question: What about the Activity [20] of the same compound?
Answer: 100%

Question: What about the Tmax [21] of the same compound?
Answer: 1.38 h

Question: What about the Cmax [22] of the same compound?
Answer: 453 ng/mL

Question: And the half-life [23]?
Answer: 2.09 h

Question: What about the AUC(0-inf) [24] of the same compound?
Answer: 868 ng·h/mL

Question: And the Activity [25]?
Answer: Active
